Reference: US20230416168A1 (EUROCHEM ANTWERPEN, priority 2020, published 2023)

Experiments:
[1] = system: NH3 or NH2OH oxidation in N. europaea cells; assay: Nitrosomonas europaea ammonia vs. hydroxylamine oxidation assay; type: cell-based; conditions: compounds 50 μM, NO2- after 30 min; for Nitrification from NH2OH (% compared to DMSO): 1 mM NH2OH as N-source; for Nitrification from NH3 (% compared to DMSO): NH4+ 1 mM as N-source
Method: Two days old, late-log phase cultures with a NO2− concentration between 10 and 20 mM were washed 3 times in fresh growth medium (without N) and finally 4 times overconcentrated via centrifugation (4000 rpm, 15 min, 4° C.). Transparent, flat bottom 96-well plate (Cat. No. 353072, Falcon® 96 Well Clear Flat Bottom Microplate, Corning®) were filled with 150 μl culture per well using a dispenser (Multidrop™ Combi Reagent Dispenser, Thermo Scientific™). Compounds (final concentration 50 μM) were added in triplicate to the multi-well plate by use of a Tecan robot (Freedom EVO®, Tecan). Thiourea (positive control for inhibition of NH3 oxidation—final concentration 100 μM) and phenylhydrazine hydrochloride (positive control for inhibition of NH2OH oxidation—final concentration 1 mM) were added to the outer two columns. Each plate was made in duplicate to add either 500 μM (NH4)2SO4 (final [NH4+]=1 mM) or 1 mM NH2OH. All plates were separately wrapped in Parafilm. Stacks of 4 plates were put on top of a 96-well plate filled with 100 μl MilliQ per well, covered with aluminum foil and shaken (±150 rpm) at 28° C. To prevent read-out of secondary effects on NO2− production, NO2− was measured only 30 min later. For this, the samples were first 2 times diluted by pipetting 15 μl in 15 μl fresh growth medium in 96-well intermediate plates (Cat. Ref. PCR-96-FS-C, 96-well PCR Microplate, Axygen®) to then mix 15 μl of the diluted samples with 15 μl Griess reagent in the wells of a transparent, flat bottom 384-well plate (Cat. No. X^7001, Low Profile Microplate, Molecular Devices) that was measured spectrophotometrically at 540 nm (EnVision, Perkin Elmer®).
To get insights on the targeted metabolic pathway and to discriminate between compounds that specifically affect NH3 oxidation or that affect another pathway, three representative novel nitrification inhibitors (Examples 1, 5 and 6) were tested in the “ammonia vs hydroxylamine oxidation assay” in which NO2− production from NH3 was compared with NO2− production from NH2OH.

Nitrosospira multiformis = assay: Nitrification inhibition assay with Nitrosospira multiformis (nitrite level after 24 h); type: cell-based; conditions: for IC50 / activity at 100 µM: Nitrosospira multiformis; for IC50: 8-point dose response, 2 to 100 μM, read-out: IC50; for activity at 100 µM: tested concentration 100 μM, 24 h, normalized to DMSO (100%) and 100 μM DMP (0%), read-out: Nitrification at tested concentration (0 = maximum activity)
How it was run: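 Dense N. multiformis cultures (5× concentrated in 181-medium) with ammonium were incubated 24 h at 30° C with shaking, then nitrite measured by Griess reagent at 540 nm. Relative nitrification normalised per plate to DMSO and 100 μM DMP controls; IC50 from logistic fit of 8-point doses 2-100 μM.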

Compound | Nitrification from NH2OH (% compared to DMSO) [1] [%] | Nitrification from NH3 (% compared to DMSO) [1] [%] | nitrification inhibition, in words (Nitrosospira multiformis) | IC50 (Nitrosospira multiformis) [µM] | activity at 100 µM (Nitrosospira multiformis) [%] | Average nitrification [%] in Nitrosospira multiformis (Nitrosospira multiformis; 2 μM) [%] | Average nitrification [%] in Nitrosospira multiformis (Nitrosospira multiformis; 3.5 μM) [%] | Average nitrification [%] in Nitrosospira multiformis (Nitrosospira multiformis; 6 μM) [%] | Average nitrification [%] in Nitrosospira multiformis (Nitrosospira multiformis; 11 μM) [%] | Average nitrification [%] in Nitrosospira multiformis (Nitrosospira multiformis; 19 μM) [%] | Average nitrification [%] in Nitrosospira multiformis (Nitrosospira multiformis; 33 μM) [%] | Average nitrification [%] in Nitrosospira multiformis (Nitrosospira multiformis; 57 μM) [%] | Average nitrification [%] in Nitrosospira multiformis (Nitrosospira multiformis; 100 μM) [%]
CN(Cc1c(Cl)nc2sccn12)CN1CCSC1=S [Example 1, 3-[[(6-chloroimidazo[2,1-b][1,3]thiazol-5-yl)methyl-methylamino]methyl]-1,3-thiazolidine-2-thione] | 81 | 12 | strongly inhibited nitrification | < 0.8 | 0 |  |  |  |  |  |  |  | 
CN(Cc1nc2ccccc2s1)CN1CCOC1=S [Example 5, 3-[[1,3-benzothiazol-2-ylmethyl(methyl)amino]methyl]-1,3-oxazolidine-2-thione] | 77 | 17 | strong nitrification inhibition | < 3.5 | 0 |  |  |  |  |  |  |  | 
S=C1NCCO1 [Example 7] |  |  |  | < 10 | 0 |  |  |  |  |  |  |  | 
S=c1[nH]ccs1 [Example 24, 3H-1,3-thiazole-2-thione] |  |  | very strong effect | 1.3 | 0 | 25 | 4 | 0 | 0 | 0 | 0 | 0 | 0
CSc1nccs1 [Example 25, 2-(methylsulfanyI)-1,3-thiazole] |  |  |  | 140 | 53 | 81 | 80 | 80 | 76 | 74 | 67 | 62 | 53
